Key:
[1] = system: negative symptoms of schizophrenia; settings: Lee et al. 2015, cited from earlier work
[2] = Plasma concentrations of d6-DM, d3-DX, d3-3-MM and Q (Example 1); settings: 2 to 3 hours after morning dose
Description: Plasma samples were separated by centrifugation and then frozen at −20° C. until assayed at the analytical unit.

[3] = subgroup of 13 patients with ALDH2*2 allele

| SMILES | PANSS and SANS scores, risperidone and dextromethorphan vs. risperidone and placebo (in words) ([1]; add-on to risperidone) | PANSS scores including PANSS negative symptom subscale, dextromethorphan vs. placebo (in words) [1, 3] | total SANS scores, dextromethorphan vs. placebo (in words) [1, 3] | mean plasma concentration, all patients ([2]; d6-DM/Q/d6-DM/Q group at Visit 4 (Week 6)) [ng/mL] | mean plasma concentration, all patients ([2]; d6-DM/Q/d6-DM/Q group at Visit 7 (Week 12)) [ng/mL] | mean plasma concentration, all patients ([2]; placebo/d6-DM/Q group at Visit 7 (Week 12)) [ng/mL] |
| --- | --- | --- | --- | --- | --- | --- |
| COc1ccc2c(c1)[C@@]13CCCC[C@H]1[C@@H](C2)N(C)CC3 [dextromethorphan, (+)-3-methoxy-N-methylmorphinan] | No significant differences | No significant difference | significant difference |  |  |  |
| [2H]C([2H])([2H])Oc1ccc2c(c1)C13CCCCC1C(C2)NCC3 (stereo not drawn) [d3-3-MM] |  |  |  | 20.5 | 19.4 | 23.4 |

— patent publication US20220071989A1, “METHODS OF TREATING NEGATIVE SYMPTOMS OF SCHIZOPHRENIA USING DEUTERATED DEXTROMETHORPHAN AND QUINIDINE” (AVANIR PHARMACEUTICALS, INC., priority 2019, published 2022)
